Measurements taken from patent US20250002450A1, “CATIONIC STEROID COMPOUNDS, METHOD OF OBTAINING THEREOF, FORMULATIONS COMPRISING THEREOF AND THEIR USES” (UNIVERSIDADE DO PORTO, priority 2021, published 2025).
Values after ≈ are worked out from the molar mass of the structure shown.

Assays:
[1] = tested on: S. aureus 66/1 (MRSA); assay: Antibacterial MIC/MBC (broth microdilution); type: cell-based, Staphylococcus aureus; settings: Staphylococcus aureus; for MBC: read-out: MBC; for MIC: read-out: MIC
From the text: (§1) Twelve reference bacterial strains and nine MDR clinically relevant bacterial strains were used in this study. Gram-negative bacteria comprised reference strains E. coli ATCC 25922, K. pneumoniae ATCC 13883, Salmonella enterica serovar Typhimurium CECT 443, P. aeruginosa ATCC 27853, A. baumannii ATCC 19606, C. jejuni ATCC 33560 (ATCC—American Type Culture Collection; CECT—Colección Espanola de Cultivos Tipo); clinical isolates E. coli SA/2, an extended-spectrum β-lactamase (ESBL)-producing strain and P. aeruginosa 33b, a pan-drug-resistant isolate; and animal isolates C. jejuni P5/4, a ciprofloxacin-resistant strain, C. jejuni 4432, C. jejuni 4433, C. jejuni 4448, and E. coli 2252, a COL-resistant strain [42]. Gram-positive strains included S. aureus ATCC 29213, E. faecalis ATCC 29212, S. pyogenes ATCC 19615, and environmental isolates methicillin-resistant S. aureus (MRSA) 66/1 [43], and VAN-resistant enterococci (VRE) E. faecalis B3/101 [44]. Gram-negative fish pathogens Yersinia ruckeri ATCC 29473, Listonella anguillarum ATCC 1924, and Tenacibaculum maritimum ATCC 43397 were also included.
(§2) Strains were kept in Trypto-Casein Soy agar (TSA—Biokar Diagnostics, Allone, Beauvais, France) slants and, before each assay, were sub-cultured in Mueller-Hinton agar (MHA—Biokar Diagnostics, Allone, Beauvais, France). Y. ruckeri ATCC 29473 and L. anguillarum ATCC 1924 were kept in Nutrient Agar (Condalab, Madrid, Spain) and T. maritimum ATCC 43397 was kept in TMM agar (Condalab, Madrid, Spain), and were sub-cultured in the respective culture media before each assay. For S. pyogenes ATCC 19615, CAMHB was supplemented with 3.75% lysed horse blood (LBH—Oxoid, Basingstoke, England), whereas for C. jejuni it was supplemented with 2.5% LHB. Colony-forming unit counts of the inoculum were conducted to determine the initial inoculum size (which should be approximately 5×10^5 CFU/mL). Sterility and growth controls were included in each assay. The 96-well U-shaped untreated polystyrene microtiter plates were incubated for 20 h at 37 degrees C. (42 degrees C. for C. jejuni, in a microaerophilic atmosphere) and the minimal inhibitory concentration (MIC) was determined as the lowest concentration of compound that prevented visible growth. The minimal bactericidal concentration (MBC) was determined by spreading 100 μL of the content of the wells with no visible growth on MH plates. The MBC was determined as the lowest concentration of compound that killed 99.9% of the initial inoculum after overnight incubation at 37 degrees C. Two independent assays were performed for reference and MDR strains.
(§3) An initial screening of the antibacterial activity of the compounds was performed by the Kirby-Bauer disk diffusion method, as recommended by the Clinical and Laboratory Standards Institute (CLSI). Briefly, sterile 6 mm blank paper disks (Oxoid, Basingstoke, England) impregnated with 15 μg of each compound were placed on inoculated MH agar plates. A blank disk with dimethylsulfoxide (DMSO) was used as a negative control. MH inoculated plates were incubated for 18-20 h at 37 degrees C. At the end of incubation, the inhibition halos where measured. The MIC was used to determine the antibacterial activity of each compound, in accordance with the recommendations of the CLSI. Two-fold serial dilutions of the compounds were prepared in Mueller-Hinton Broth 2 (MHB2—Sigma-Aldrich, St. Louis, MO, USA) within the concentration range of 0.062-64 μg/mL. CTX ranging between 0.031-16 μg/mL was used as a control. Sterility and growth controls were included in each assay. Purity checks and colony counts of the inoculum suspensions were also performed in order to ensure that the final inoculum density closely approximates the intended number (5×10^5 CFU/mL). The MIC was determined as the lowest concentration of compound that inhibited growth of the bacteria. The MBC was assessed by spreading 10 μL of culture collected from wells showing no visible growth on MH agar plates. […]

[2] = tested on: C. jejuni 4433; assay: Antibacterial MIC/MBC (broth microdilution); type: cell-based, Campylobacter jejuni; settings: Campylobacter jejuni; for MBC: read-out: MBC; for MIC: read-out: MIC
From the text: as §1, §2, §3

[3] = tested on: C. jejuni 4448; assay: Antibacterial MIC/MBC (broth microdilution); type: cell-based, Campylobacter jejuni; settings: Campylobacter jejuni; for MBC: read-out: MBC; for MIC: read-out: MIC
From the text: as §1, §2, §3

[4] = tested on: C. jejuni 4432; assay: Antibacterial MIC/MBC (broth microdilution); type: cell-based, Campylobacter jejuni; settings: Campylobacter jejuni; for MBC: read-out: MBC; for MIC: read-out: MIC
From the text: as §1, §2, §3

[5] = tested on: C. jejuni P5/4; assay: Antibacterial MIC/MBC (broth microdilution); type: cell-based, Campylobacter jejuni; settings: Campylobacter jejuni; for MBC: read-out: MBC; for MIC: read-out: MIC
From the text: as §1, §2, §3

[6] = tested on: Salmonella enterica serovar Typhimurium CECT 443; assay: Antibacterial MIC/MBC (broth microdilution); type: cell-based; settings: for MBC: read-out: MBC; for MIC: read-out: MIC
From the text: as §1, §2, §3

[7] = tested on: Campylobacter jejuni ATCC 33560; assay: Antibacterial MIC/MBC (broth microdilution); type: cell-based; settings: ATCC33560, Campylobacter jejuni ATCC 33560; for MBC: read-out: MBC; for MIC: read-out: MIC
From the text: as §1, §2, §3

[8] = tested on: Klebsiella pneumoniae ATCC 13883; assay: Antibacterial MIC/MBC (broth microdilution); type: cell-based; settings: ATCC13883, Klebsiella pneumoniae ATCC 13883; for MBC: read-out: MBC; for MIC: read-out: MIC
From the text: as §1, §2, §3

[9] = tested on: Yersinia ruckeri ATCC 29473; assay: Antibacterial MIC/MBC (broth microdilution); type: cell-based; settings: for MBC: ATCC29473, read-out: MBC; for MIC: ATCC29473, read-out: MIC
From the text: as §1, §2, §3

[10] = tested on: Staphylococcus aureus ATCC 29213; assay: Antibacterial MIC/MBC (broth microdilution); type: cell-based; settings: for MBC: ATCC29213, read-out: MBC; for MIC: ATCC29213, read-out: MIC
From the text: as §1, §2, §3

[11] = tested on: Listonella anguilarum ATCC 1924; assay: Antibacterial MIC/MBC (broth microdilution); type: cell-based; settings: for MBC / MIC: Listonella anguilarum ATCC 1924; for MBC: read-out: MBC; for MIC: read-out: MIC
From the text: as §1, §2, §3

[12] = tested on: Enterococcuss faecalis ATCC 29212; assay: Antibacterial MIC/MBC (broth microdilution); type: cell-based, Enterococcus faecalis; settings: for MBC / MIC: Enterococcus faecalis, ATCC29212, Enterococcuss faecalis ATCC 29212; for MBC: read-out: MBC; for MIC: read-out: MIC
From the text: as §1, §2, §3

[13] = tested on: E. faecalis B3/101 (VRE); assay: Antibacterial MIC/MBC (broth microdilution); type: cell-based, Enterococcus faecalis; settings: for MBC / MIC: Enterococcus faecalis, E. faecalis B3/101 (VRE); for MBC: read-out: MBC; for MIC: read-out: MIC
From the text: as §1, §2, §3

[14] = tested on: Tenacibaculum maritimum ATCC 43397; assay: Antibacterial disk diffusion; type: cell-based; settings: Tenacibaculum maritimum ATCC 43397, footnote *
From the text: as §1, §2, §3

[15] = tested on: E. coli SA/2 (ESBL); assay: Antibacterial MIC/MBC (broth microdilution); type: cell-based, Escherichia coli; settings: Escherichia coli
From the text: as §1, §2, §3

[16] = tested on: E. coli 2252 (COL-resistant); assay: Antibacterial MIC/MBC (broth microdilution); type: cell-based, Escherichia coli; settings: Escherichia coli, E. coli 2252 (COL-resistant); for MBC: read-out: MBC; for MIC: read-out: MIC
From the text: as §1, §2, §3

Structure (SMILES): C[C@H](CCC(=O)N1CCNCC1)[C@H]1CC[C@H]2[C@@H]3CC[C@@H]4C[C@H](O)CC[C@]4(C)[C@H]3C[C@H](O)[C@]12C [Compound 9, (R)-4-((3R,5R,8R,9S,10S,12S,13R,14S,17R)-3,12-dihydroxy-10,13-dimethylhexadecahydro-1H-cyclopenta[a]phenanthren-17-yl)-1-(piperazin-1-yl) pentan-1-one]
- MBC [1]: 64 µg/mL (≈ 139 µM)
- MIC [1]: 64 µg/mL (≈ 139 µM)
- MBC [2]: > 64 µg/mL
- MIC [2]: > 64 µg/mL
- MBC [3]: > 64 µg/mL
- MIC [3]: > 64 µg/mL
- MBC [4]: > 64 µg/mL
- MIC [4]: > 64 µg/mL
- MBC [5]: > 64 µg/mL
- MIC [5]: > 64 µg/mL
- MBC [6]: 64 µg/mL (≈ 139 µM)
- MIC [6]: 64 µg/mL (≈ 139 µM)
- MBC [7]: > 64 µg/mL
- MIC [7]: > 64 µg/mL
- MBC [8]: > 64 µg/mL
- MIC [8]: > 64 µg/mL
- MBC [9]: > 64 µg/mL
- MIC [9]: > 64 µg/mL
- MBC [10]: 64 µg/mL (≈ 139 µM)
- MIC [10]: 64 µg/mL (≈ 139 µM)
- antibacterial activity (in words) ([11]; Listonella anguilarum): active
- MBC [11]: 64 µg/mL (≈ 139 µM)
- MIC [11]: 64 µg/mL (≈ 139 µM)
- antibacterial activity (in words) ([12]; E. faecalis ATCC 29212): exhibited antimicrobial activity
- MBC [12]: 64 µg/mL (≈ 139 µM)
- MIC [12]: 64 µg/mL (≈ 139 µM)
- antibacterial activity (in words) ([13]; E. faecalis B3/101): displayed the same effect
- MBC [13]: > 64 µg/mL
- MIC [13]: 32 µg/mL (≈ 69.5 µM)
- Inhibition zone diameter (disk diffusion) [14]: 9 mm
- MBC [15]: > 64 µg/mL
- MIC [15]: > 64 µg/mL
- MBC [16]: > 64 µg/mL
- MIC [16]: > 64 µg/mL

Structure (SMILES): C[C@H](CCC(=O)NCCNc1ccccc1)[C@H]1CC[C@H]2[C@@H]3CC[C@@H]4C[C@H](O)CC[C@]4(C)[C@H]3C[C@H](O)[C@]12C [Compound 8, (R)-4-((3R,5R,8R,9S,10S,12S,13R,14S,17R)-3,12-dihydroxy-10,13-dimethylhexadecahydro-1H-cyclopenta[a]phenanthren-17-yl)-N-(2-(phenylamino)ethyl)pentanamide]
- MBC [1]: > 64 µg/mL
- MIC [1]: > 64 µg/mL
- MBC [2]: > 64 µg/mL
- MIC [2]: > 64 µg/mL
- MBC [3]: > 64 µg/mL
- MIC [3]: > 64 µg/mL
- MBC [4]: > 64 µg/mL
- MIC [4]: > 64 µg/mL
- MBC [5]: > 64 µg/mL
- MIC [5]: > 64 µg/mL
- MBC [6]: > 64 µg/mL
- MIC [6]: > 64 µg/mL
- MBC [7]: > 64 µg/mL
- MIC [7]: > 64 µg/mL
- MBC [8]: > 64 µg/mL
- MIC [8]: > 64 µg/mL
- MBC [9]: > 64 µg/mL
- MIC [9]: > 64 µg/mL
- MBC [10]: > 64 µg/mL
- MIC [10]: 16 µg/mL (≈ 31.3 µM)
- MBC [11]: > 64 µg/mL
- MIC [11]: > 64 µg/mL
- MBC [12]: > 64 µg/mL
- MIC [12]: > 64 µg/mL
- MBC [13]: > 64 µg/mL
- MIC [13]: > 64 µg/mL
- Inhibition zone diameter (disk diffusion) [14]: 12 mm
- MBC [15]: > 64 µg/mL
- MIC [15]: > 64 µg/mL
- MBC [16]: > 64 µg/mL
- MIC [16]: > 64 µg/mL
